Test results: patent US10836759B2, “Thiazole derivatives useful as mutant IDH1 inhibitors for treating cancer” (THE UNITED STATES OF AMERICA, AS REPRESENTED BY THE …, priority 2016, dated 2020)

Tests used:
IDH1 R132C = IDH1 R132C (Homo sapiens, UniProt O75874, R132C); assay: Enzymatic inhibition assay, mutant IDH1 R132C (NADPH depletion coupled to diaphorase/resazurin); assay type: biochemical; details: IDH1 R132C enzyme, IC50 class
Protocol: (§1) Assays were conducted in a 1536-well black solid-bottom plate with a final assay volume of 9 μL.
For IDH1 R132C, 3 μL of enzyme (0.00032 mg/mL IDH1 R132H, 10% glycerol, 50 mM potassium phosphate pH 6.5, 5 mM MgCl2, 0.03% BSA) were added to the plate, followed by the addition of 23 nL of test compound in DMSO. The plate was lidded and incubated at room temperature for 30 minutes at which time 3 μL of substrate were added (0.012 mM NADPH, 0.6 mM α-KG, 10% glycerol, 50 mM potassium phosphate pH 6.5, 5 mM MgCl2, 0.03% BSA). […]

IDH1 R132H = IDH1 R132H (Homo sapiens, UniProt O75874, R132H); assay: Enzymatic inhibition assay, mutant IDH1 R132H (NADPH depletion coupled to diaphorase/resazurin); assay type: biochemical; details: IDH1 R132H enzyme, IC50 class
Protocol: as §1
Specifically, for IDH1 R132H, 3 μL of enzyme (4 mM β-ME, 0.0005 mg/mL IDH1 R132H, 150 mM NaCl, 20 mM Tris pH 7.5, 10 mM MgCl2, 0.05% BSA) were added to the plate, followed by the addition of 23 nL of test compound in DMSO. The plate was lidded and incubated at room temperature for 30 minutes at which time 3 μL of substrate were added (0.016 mM NADPH, 2 mM α-KG, 150 mM NaCl, 20 mM Tris pH 7.5, 10 mM MgCl2, 0.05% BSA). This reaction was incubated at room-temperature for 60 minutes at which time the detection mix was added (0.06 mg/mL diaphorase, 0.036 mM resazurin, 150 mM NaCl, 20 mM Tris pH 7.5, 10 mM MgCl2, 0.05% BSA). […]

Sequence of IDH1 R132H (O75874 whole entry R132H): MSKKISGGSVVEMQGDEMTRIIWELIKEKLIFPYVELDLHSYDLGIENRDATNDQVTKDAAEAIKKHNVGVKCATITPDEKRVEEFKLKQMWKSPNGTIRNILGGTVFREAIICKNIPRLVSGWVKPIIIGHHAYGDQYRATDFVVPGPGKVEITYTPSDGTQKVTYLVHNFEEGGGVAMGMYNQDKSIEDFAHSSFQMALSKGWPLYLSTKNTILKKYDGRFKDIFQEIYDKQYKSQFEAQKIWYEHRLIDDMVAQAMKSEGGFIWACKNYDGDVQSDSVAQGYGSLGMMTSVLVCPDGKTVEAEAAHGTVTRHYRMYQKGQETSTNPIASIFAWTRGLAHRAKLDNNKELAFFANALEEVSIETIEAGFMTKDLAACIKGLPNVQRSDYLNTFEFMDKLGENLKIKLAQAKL
Sequence of IDH1 R132C (O75874 whole entry R132C): as the sequence (O75874 whole entry R132H) above, with H132C counted along it

Compound | IC50 (IDH1 R132C) | IC50 (IDH1 R132H)
CCOc1ccc(Cl)cc1-n1c(C=C(C)C)c(C(=O)N2CC3CCC(C2)N3)cc(-c2nc(-c3ccc(Cl)cc3)cs2)c1=O (single isomer, unassigned) [Compound 113-1] | < 300 nM | < 300 nM
CCOc1ccc(Cl)cc1-n1c(C=C(C)C)c(C(=O)N2CC3CCC(C2)N3)cc(-c2nc(-c3ccc(Cl)cc3)cs2)c1=O (single isomer, unassigned) [Compound 113-2] | 300 to 1000 nM | 1000 to 5000 nM
CCc1ccc(OC)cc1-n1c(C=C(C)C)c(C(=O)N2C[C@H]3CC[C@@H](C2)N3)cc(-c2nc(-c3ccc(Cl)cc3)cs2)c1=O (single isomer, unassigned) [Compound 114-1] | < 300 nM | < 300 nM
CCc1ccc(OC)cc1-n1c(C=C(C)C)c(C(=O)N2C[C@H]3CC[C@@H](C2)N3)cc(-c2nc(-c3ccc(Cl)cc3)cs2)c1=O (single isomer, unassigned) [Compound 114-2] | 300 to 1000 nM | 300 to 1000 nM
CCOc1ccc(Cl)c(-n2c(C=C(C)C)c(C(=O)N3CC4CCC(C3)N4)cc(-c3nc(-c4ccc(Cl)cc4)cs3)c2=O)c1 (single isomer, unassigned) [Compound 126-1] | < 300 nM | < 300 nM
CCOc1ccc(Cl)c(-n2c(C=C(C)C)c(C(=O)N3CC4CCC(C3)N4)cc(-c3nc(-c4ccc(Cl)cc4)cs3)c2=O)c1 (single isomer, unassigned) [Compound 126-2] | 1000 to 5000 nM | 1000 to 5000 nM
CCc1ccc(Cl)cc1-n1c(C=C(C)C)c(C(=O)N2CC3CCC(C2)N3)cc(-c2nc(-c3ccc(Cl)cc3)cs2)c1=O (single isomer, unassigned) [Compound 133-1] | < 300 nM | 300 to 1000 nM
CCc1ccc(Cl)cc1-n1c(C=C(C)C)c(C(=O)N2CC3CCC(C2)N3)cc(-c2nc(-c3ccc(Cl)cc3)cs2)c1=O (single isomer, unassigned) [Compound 133-2] | 300 to 1000 nM | 1000 to 5000 nM
CCOc1ccc(Cl)c(-n2c(C=C(C)C)c(C(=O)N3CCNCC3)cc(-c3nc(-c4ccc(Cl)cc4)cs3)c2=O)c1 (single isomer, unassigned) [Compound 139-1] | < 300 nM | < 300 nM
CCOc1ccc(Cl)c(-n2c(C=C(C)C)c(C(=O)N3CCNCC3)cc(-c3nc(-c4ccc(Cl)cc4)cs3)c2=O)c1 (single isomer, unassigned) [Compound 139-2] | 1000 to 5000 nM | 300 to 1000 nM
CCOc1ccc(Cl)cc1-n1c(C=C(C)C)c(C(=O)N2CCNCC2)cc(-c2nc(-c3ccc(C#N)cc3)cs2)c1=O (single isomer, unassigned) [Compound 140-1] | < 300 nM | < 300 nM
CCOc1ccc(Cl)cc1-n1c(C=C(C)C)c(C(=O)N2CCNCC2)cc(-c2nc(-c3ccc(C#N)cc3)cs2)c1=O (single isomer, unassigned) [Compound 140-2] | 300 to 1000 nM | < 300 nM
CCOc1ccc(Cl)cc1-n1c(C=C(C)C)c(C(=O)N2CC3CCC(C2)N3)cc(-c2nc(-c3ccc(C#N)cc3)cs2)c1=O (single isomer, unassigned) [Compound 141-1] | < 300 nM | < 300 nM
CCOc1ccc(Cl)cc1-n1c(C=C(C)C)c(C(=O)N2CC3CCC(C2)N3)cc(-c2nc(-c3ccc(C#N)cc3)cs2)c1=O (single isomer, unassigned) [Compound 141-2] | < 300 nM | 300 to 1000 nM
CCOc1ccc(Cl)cc1-n1c(C=C(C)C)c(C(=O)N2CCNCC2)cc(-c2nc(-c3ccc(Cl)cc3)cs2)c1=O (single isomer, unassigned) [Compound 143-1] | 300 to 1000 nM | 
CCc1ccc(Cl)cc1-n1c(C=C(C)C)c(C(=O)N2CCNCC2)cc(-c2nc(-c3ccc(Cl)cc3)cs2)c1=O (single isomer, unassigned) [Compound 144-1] | < 300 nM | < 300 nM
CCc1ccc(Cl)cc1-n1c(C=C(C)C)c(C(=O)N2CCNCC2)cc(-c2nc(-c3ccc(Cl)cc3)cs2)c1=O (single isomer, unassigned) [Compound 144-2] | 300 to 1000 nM | < 300 nM
CCc1ccc(OC)cc1-n1c(C=C(C)C)c(C(=O)N2CCNCC2)cc(-c2nc(-c3ccc(Cl)cc3)cs2)c1=O (single isomer, unassigned) [Compound 151-2] | 300 to 1000 nM | 
CCc1ccc(Cl)cc1-n1c(C=C(C)C)c(C(=O)N2CCNCC2)cc(-c2nc(-c3ccc(Cl)cc3)cs2)c1=O [Compound 101] | < 300 nM | < 300 nM
CCc1ccc(OC)cc1-n1c(C=C(C)C)c(C(=O)N2CCNCC2)cc(-c2nc(-c3ccc(C(F)(F)F)cc3)cs2)c1=O [Compound 102] | < 300 nM | < 300 nM
CCc1ccc(OC)cc1-n1c(C=C(C)C)c(C(=O)N2CCNCC2)cc(-c2nc(-c3ccc(C(F)(F)F)nc3)cs2)c1=O [Compound 103] | < 300 nM | < 300 nM

Compound | IC50 (IDH1 R132C) | IC50 (IDH1 R132H)
CCc1ccc(OC)cc1-n1c(C=C(C)C)c(C(=O)N2CCNCC2)cc(-c2nc(-c3ccc(C(F)F)cc3)cs2)c1=O [Compound 104] | < 300 nM | < 300 nM
CCOc1ccc(Cl)c(-n2c(C=C(C)C)c(C(=O)N3CCNCC3)cc(-c3nc(-c4ccc(C(F)(F)F)cc4)cs3)c2=O)c1 [Compound 105] | < 300 nM | < 300 nM
CCOc1ccc(Cl)c(-n2c(C=C(C)C)c(C(=O)N3CCNCC3)cc(-c3nc(-c4ccc(C(F)F)cc4)cs3)c2=O)c1 [Compound 106] | < 300 nM | < 300 nM
CCOc1ccc(Cl)cc1-n1c(C=C(C)C)c(C(=O)N2CCN[C@@H](C)C2)cc(-c2nc(-c3ccc(C(F)(F)F)cc3)cs2)c1=O [Compound 107] | < 300 nM | < 300 nM
CCc1cccc(CC)c1-n1c(C=C(C)C)c(C(=O)N2CCN[C@@H](C)C2)cc(-c2nc(-c3ccc(C(F)F)cc3)cs2)c1=O [Compound 108] | < 300 nM | < 300 nM
CCc1cccc(CC)c1-n1c(C=C(C)C)c(C(=O)N2CCN[C@@H](C)C2)cc(-c2nc(-c3ccc(Cl)cc3)cs2)c1=O [Compound 109] | < 300 nM | < 300 nM
CCOc1ccc(Cl)cc1-n1c(C=C(C)C)c(C(=O)N2CCN[C@H](C)C2)cc(-c2nc(-c3ccc(C(F)(F)F)cc3)cs2)c1=O [Compound 110] | < 300 nM | < 300 nM
CCc1cccc(CC)c1-n1c(C=C(C)C)c(C(=O)N2CCN[C@H](C)C2)cc(-c2nc(-c3ccc(C(F)F)cc3)cs2)c1=O [Compound 111] | < 300 nM | < 300 nM
CCc1cccc(CC)c1-n1c(C=C(C)C)c(C(=O)N2CCN[C@H](C)C2)cc(-c2nc(-c3ccc(Cl)cc3)cs2)c1=O [Compound 112] | < 300 nM | < 300 nM
CCOc1ccc(Cl)cc1-n1c(C=C(C)C)c(C(=O)N2CC3CCC(C2)N3)cc(-c2nc(-c3ccc(Cl)cc3)cs2)c1=O [Compound 113] | < 300 nM | < 300 nM
CCc1ccc(OC)cc1-n1c(C=C(C)C)c(C(=O)N2CC3CCC(C2)N3)cc(-c2nc(-c3ccc(Cl)cc3)cs2)c1=O [Compound 114] | < 300 nM | < 300 nM
CCOc1ccc(Cl)cc1-n1c(C=C(C)C)c(C(=O)N2CC3CCC(C2)N3)cc(-c2nc(-c3ccc(C(F)(F)F)cc3)cs2)c1=O [Compound 115] | < 300 nM | < 300 nM
CCc1cccc(CC)c1-n1c(C=C(C)C)c(C(=O)N2CC3CCC(C2)N3)cc(-c2nc(-c3ccc(C(F)F)cc3)cs2)c1=O [Compound 116] | < 300 nM | < 300 nM
CCc1ccc(Cl)cc1-n1c(CC(C)C)c(C(=O)N2CCNCC2)cc(-c2nc(-c3ccc(C(F)F)cc3)cs2)c1=O [Compound 118] | 300 to 1000 nM | 300 to 1000 nM
CCc1cccc(CC)c1-n1c(C=C(C)C)c(C(=O)N2C[C@H]3CC[C@@H](C2)N3)cc(-c2nc(-c3ccc(C(F)F)nc3)cs2)c1=O [Compound 119] | < 300 nM | < 300 nM
CCc1ccc(Cl)cc1-n1c(C=C(C)C)c(C(=O)N2CCNCC2)cc(-c2nc(-c3ccc(C(F)(F)F)nc3)cs2)c1=O [Compound 122] | 1000 to 5000 nM | 300 to 1000 nM
CCc1cccc(CC)c1-n1c(C=C(C)C)c(C(=O)N2CCNC[C@H]2C)cc(-c2nc(-c3ccc(Cl)cc3)cs2)c1=O [Compound 123] | < 300 nM | < 300 nM
CCc1cccc(CC)c1-n1c(C=C(C)C)c(C(=O)N2CCNC[C@@H]2C)cc(-c2nc(-c3ccc(Cl)cc3)cs2)c1=O [Compound 124] | < 300 nM | < 300 nM
CCOc1ccc(Cl)cc1-n1c(C=C(C)C)c(C(=O)N2C[C@H]3CC[C@@H](C2)N3)cc(-c2nc(-c3ccc(C(F)F)cc3)cs2)c1=O [Compound 125] | < 300 nM | < 300 nM
CCOc1ccc(Cl)c(-n2c(C=C(C)C)c(C(=O)N3C[C@H]4CC[C@@H](C3)N4)cc(-c3nc(-c4ccc(Cl)cc4)cs3)c2=O)c1 [Compound 126] | < 300 nM | < 300 nM
CCOc1ccc(Cl)c(-n2c(C=C(C)C)c(C(=O)N3C[C@H]4CC[C@@H](C3)N4)cc(-c3nc(-c4ccc(C(F)(F)F)cc4)cs3)c2=O)c1 [Compound 127] | < 300 nM | < 300 nM
